We go through three compounds from patent US20170202818A1, “METHODS AND COMPOSITIONS TO MODIFY GSK-3 ACTIVITY” (Ohio University, priority 2014, published 2017).

The conditions of assay [1]: Alzheimer's disease, Phase IIb; cited from earlier work.
For assay [2] the following is noted: cited from earlier work.
Assay [3] concerns PMA differentiated THP-1 human macrophages stimulated with Aβ(1-42) peptides. Description: Aβ(1-42)-induced inflammatory cytokines in human macrophages (RT-PCR, ELISA). The assay is classed as cell-based. Particulars: Aβ(1-42) 10 μM, 5 hours; for concentration at which IL-1β protein production was decreased: ELISA; for IFN-β mRNA expression / IL-1α mRNA expression: dose-dependent. On the procedure: (§1) THP-1 cells were differentiated using PMA (50 ng/mL) as previously described and stimulated with either LPS (10 ng/mL) or […] human Aβ(1-42) peptides alone, or in combination with COB-152, COB-187 or 0.1% DMSO solvent for 5 hours. Following incubation, the supernatant was collected and stored at −80° C. until assayed for IL-6, TNF-α, and IL-1β protein by ELISA, whereas RNA extracted from the cells was reverse transcribed and subjected to quantitative RT-PCR for quantification of IL-6, TNF-α, IL-1α, IL-1, and IFN-β mRNA. All experiments were performed at least thrice and in duplicates.
(§2) RNA extracted from differentiated THP-1 cells treated as previously described was reverse transcribed to cDNA and subjected to quantitative RT-PCR. Relative IL-6, TNF-α, IL-1α, IL-1, and IFN-β gene expression was determined by normalizing with Hprt1 using the comparative Ct method. Commercially available cytokine ELISA kits (BD Biosciences, Burlington, N.C.) were used to quantify the levels of secreted IL-6, TNF-α, and IL-1 protein in the supernatant obtained from differentiated THP-1 cells treated with either LPS (10 ng/mL) or 10 μM human Aβ(1-42) peptides alone, or in combination with COB-152, COB-187 or 0.1% DMSO solvent. The ELISA was performed according to the manufacturer's protocol. The supernatant was diluted with the assay diluent at different ratios as shown in the TABLE 4 below for IL-6, TNF-α, and IL-1β. All samples were tested in duplicates and the results were expressed as Mean±SD of the cytokine concentration (pg/mL). All results presented were corrected for dilution factor.

Assay [4] concerns PMA differentiated THP-1 cells. The experiment in a line: western blotting of β-catenin and GSK-3 in PMA differentiated THP-1 cells. It is filed as cell-based, human. The conditions noted are these: for expression of β-catenin protein: PMA differentiated THP-1, 0.5-25 μM, 5 hours; for expression of GSK-3: PMA differentiated THP-1, higher concentrations, e.g., 10 μM and 25 μM. On the procedure: RAW 264.7 cells were cultured in RPMI 1640 medium supplemented with 10% FBS and 0.5% penicillin-streptomycin stabilized solution. THP-1 cells were cultured and differentiated into macrophages using phorbol 12-myristate 13-acetate (i.e., PMA). More specifically, THP-1 cells were cultured in RPMI-1640 10% FBS supplemented with 0.05 mM 2-mercaptoethanol. For differentiation to a macrophage phenotype, THP-1 cells were stimulated with PMA (50 ng/mL) for 24 hours. Differentiated THP-1 cells were washed with fresh media twice before incubation for 24 more hours at 37° C., 5% CO2 in a humidified incubator. The monolayer was then treated with ox-LDL or native LDL (both at either 50 or 100 μg/mL) and LPS (10 ng/mL) for 4 hours. Undifferentiated THP-1 cells were cultured and treated under similar conditions were used as a control.
(§3) To test the ability of COB-187 and COB-152 to increase β-catenin levels, RAW 264.7 macrophages and PMA differentiated THP-1 cells were treated with COB-152 or COB 187 at different concentrations or 0.1% (v/v) DMSO solvent for 5 hours. Following treatment, protein was extracted and probed for β-catenin and total GSK-3 via western blotting.
(§4) More specifically, RAW 264.7 cells and PMA differentiated THP-1 cells were treated with varying concentrations of COB-187 or COB-152 dissolved in culture media containing 0.1% (v/v) dimethylsulfoxide (i.e., DMSO) solvent or with 0.1% (v/v) DMSO alone for 5 or 24 hours. After incubation, […] protein was extracted from the cells and quantified. More specifically, culture supernatant was collected and store at −80° C. until further use. The cells were lysed in 10 mM Tris HCl at pH 7.5, 150 mM NaCl, and 1% nonyl phenoxypolyethoxylethanol-40, containing a cocktail of protease inhibitors (Roche, Mannheim, Germany). Insoluble material was pelleted and the supernatant containing total protein as well as the culture supernatant was quantified using a Micro BCA protein kit. […] of protein was then resolved onto a denaturing gel, transferred to a nitrocellulose membrane, and immunoblotted with antibodies against GSK-3 and β-catenin. Signals were detected using the Li-Cor Odyssey Infrared Imaging System (Lincoln, Nebr.). Membranes were stripped and reprobed with primary antibody for β-actin as a loading control. All experiments were performed at least thrice in both RAW 264.7 and PMA differentiated THP-1 cells, and in duplicates.

For assay [5], the system named is RAW 264.7 murine macrophages. Description: western blotting of β-catenin and GSK-3 in RAW 264.7 macrophages. The assay is classed as cell-based. Particulars: for expression of β-catenin protein: RAW 264.7, 0.5-25 μM, 5 hours; for expression of GSK-3: RAW 264.7, higher concentrations, e.g., 10 μM and 25 μM. On the procedure: as §3, §4
In assay [6] the test system is PMA differentiated THP-1 human macrophages stimulated with LPS. Description: LPS-induced inflammatory cytokines in human macrophages (RT-PCR, ELISA). It is filed as cell-based. The conditions noted are these: LPS 10 ng/mL, 5 hours. Here is the method:
as §1, §2

Another assay concerns non-GSK-3 kinases. The experiment in a line: kinase screen, non-GSK-3 kinases. Particulars: COB-152 at 2 μM; COB-187 at 1 μM; FIG. 3.
The test system of assay [7] is LPS induced RAW macrophages. The experiment in a line: LPS-induced IL-6 mRNA in RAW 264.7 macrophages. The assay is classed as cell-based. Particulars: LPS stimulated murine macrophages, 0.1, 1 or 10 μM. Here is the method:
RAW 264.7 were stimulated with either LPS (10 ng/mL) alone, or in combination with COB-152, COB-187 or 0.1% DMSO solvent for 5 hours. Following incubation, RNA was extracted from the cells. Quantitative RT-PCR was used to quantify expression of mRNA.

In assay [8] the test system is RAW 264.7 murine macrophages. Description: quantitative RT-PCR of β-catenin mRNA in RAW 264.7 cells. The assay is classed as cell-based. The conditions noted are these: RAW 264.7, 4, 20 or 40 μM, 5 hours. On the procedure: RAW 264.7 cells were treated with varying concentrations of COB-187, COB-152 or 0.1% (v/v) DMSO solvent alone for 5 or 24 hours. Following treatment, RNA was extracted from the cells and reverse transcribed. More specifically, total RNA was isolated using RNeasy plus mini kit according to the manufacturer's protocol and quantified using a Nanodrop 2000C Spectrophotometer. First-strand cDNA was synthesized from total RNA using cDNA Reverse Transcription Kit according to the manufacturer's protocol. Quantitative RT-PCR was performed using Taqman Gene Expression Assay (Life Technologies, Waltham, Mass.) and mouse primers for GAPDH and β-catenin. Relative gene expression was determined by normalizing with GAPDH using the comparative Ct method. All experiments were performed at least thrice in duplicates.

The next assay concerns GSK-3α and GSK-3β. Description: kinase screen, GSK-3. The conditions noted are these: COB-152 at 2 μM; COB-187 at 1 μM; FIG. 3.
A further assay addresses GSK-3α (Homo sapiens, UniProt P49840). Description: fluorescence-based molecular assay of GSK-3α activity. The conditions noted are these: 60 minutes at room temperature, Ser/Thr substrate and ATP.
The target of a further assay is GSK-3β (Homo sapiens, UniProt P49841). The experiment in a line: fluorescence-based molecular assay of GSK-3β activity. Particulars: 60 minutes at room temperature, Ser/Thr substrate and ATP.
GSK-3β, sequence (P49841 whole entry, species assumed): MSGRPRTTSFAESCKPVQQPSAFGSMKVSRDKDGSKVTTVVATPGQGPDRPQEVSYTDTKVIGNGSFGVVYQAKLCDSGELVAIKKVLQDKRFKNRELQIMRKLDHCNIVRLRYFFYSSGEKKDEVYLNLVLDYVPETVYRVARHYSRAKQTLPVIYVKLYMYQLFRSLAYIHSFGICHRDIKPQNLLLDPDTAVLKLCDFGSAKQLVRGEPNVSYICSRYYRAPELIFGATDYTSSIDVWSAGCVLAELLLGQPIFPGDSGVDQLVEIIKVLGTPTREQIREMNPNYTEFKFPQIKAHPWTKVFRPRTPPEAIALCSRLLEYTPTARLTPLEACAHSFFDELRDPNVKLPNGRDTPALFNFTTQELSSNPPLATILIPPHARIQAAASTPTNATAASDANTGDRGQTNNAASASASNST

Read-outs that look alike come from different tables or passages of the source. A value given as a limit tells only on which side of the number the result lay.

GSK-3α, sequence (P49840 whole entry, species assumed): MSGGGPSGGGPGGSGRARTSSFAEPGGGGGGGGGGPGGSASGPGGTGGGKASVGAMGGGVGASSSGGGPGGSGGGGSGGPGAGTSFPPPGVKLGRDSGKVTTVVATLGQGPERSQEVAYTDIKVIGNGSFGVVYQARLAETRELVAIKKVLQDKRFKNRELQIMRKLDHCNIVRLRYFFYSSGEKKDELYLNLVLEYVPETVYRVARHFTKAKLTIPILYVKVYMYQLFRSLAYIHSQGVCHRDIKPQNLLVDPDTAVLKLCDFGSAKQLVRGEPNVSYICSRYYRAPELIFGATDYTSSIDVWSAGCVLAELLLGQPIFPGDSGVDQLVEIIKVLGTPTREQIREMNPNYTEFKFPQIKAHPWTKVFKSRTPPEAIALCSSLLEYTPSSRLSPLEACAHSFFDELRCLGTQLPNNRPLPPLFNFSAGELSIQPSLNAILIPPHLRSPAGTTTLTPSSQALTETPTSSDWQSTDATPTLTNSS

Regarding `O=c1sn(-c2cccc3ccccc23)c(=O)n1Cc1ccccc1` [tideglusib], the primary endpoint result was “primary endpoint was not achieved” in assay [1] and “did not meet is primary endpoint” in assay [2] (progressive supranuclear palsy, phase II). Also, in assay [2] (analysis of a sub-set of patients), the “progression of global cerebral atrophy compared to placebo” value was “reduced progression of global cerebral atrophy”.
With `OC1(c2ccccc2)CSC(=S)N1Cc1cccnc1` (stereo not shown) [COB-152], in [3], the “IL-6 production (mRNA and protein)” value is given as “dose-dependent decrease”; the “TNF-α production (mRNA and protein)” value is “dose-dependent decrease”; the concentration at which IL-1β protein production was decreased is not below 25 µM; the “IFN-β mRNA expression” value is on record as “inhibited”. Moreover, the “IL-1α mRNA expression” value in assay [3] is “inhibited”. Further, in assay [4], the “expression of β-catenin protein” value was “increased expression” and the “expression of GSK-3” value is “may also be affected”. For the same compound, in [5], the “expression of β-catenin protein” value is “increased in a dose-dependent manner” and the “expression of GSK-3” value is recorded as “may also be affected”. Moreover, in [6], the “IL-1α mRNA expression” value is recorded as “inhibited”; the “IL-6 production (mRNA and protein)” value was “dose-dependent decrease”; the “TNF-α production (mRNA and protein)” value is “dose-dependent decrease”. The concentration at which IL-1β protein production was decreased in assay [6] (ELISA) was not below 50 µM. Besides, the “effect on non-GSK-3 kinases, such as the cyclin dependent protein kinases” value with non-GSK-3 kinases is recorded as “little effect”. Moreover, the “IL-6 mRNA production” value in [7] is reported as “dose dependently inhibited”. Besides, the “expression of β-catenin mRNA” value in assay [8] is recorded as “did not alter”.
Turning to `OC1(c2ccccc2)CSC(=S)N1Cc1ccncc1` (stereo not shown) [COB-187], in assay [3], the “IL-6 production (mRNA and protein)” value is reported as “dose-dependent decrease”; the “TNF-α production (mRNA and protein)” value is on record as “dose-dependent decrease”; the concentration at which IL-1β protein production was decreased is not below 10 µM; the “IFN-β mRNA expression” value is listed as “inhibited”. The “IL-1α mRNA expression” value in [3] is “inhibited”. Moreover, in assay [4], the “expression of β-catenin protein” value is “increased expression” and the “expression of GSK-3” value was “may also be affected”. In addition, the “activity of GSK-3α/β in kinase screen” value in the assay with GSK-3α and GSK-3β is listed as “inhibit”. For the same compound, in assay [5], the “expression of β-catenin protein” value is “increased in a dose-dependent manner” and the “expression of GSK-3” value was “may also be affected”. Besides, in assay [6], the “IL-1α mRNA expression” value was “inhibited”; the “IL-6 production (mRNA and protein)” value is recorded as “dose-dependent decrease”; the “TNF-α production (mRNA and protein)” value was “dose-dependent decrease”. In assay [6] (ELISA), the IL-1β protein production result was “dose-dependent decrease”. Further, at GSK-3α, the “IC50, inhibition of GSK-3α activity” value is “nanomolar range”. For the same compound, the “effect on non-GSK-3 kinases, such as the cyclin dependent protein kinases” value in the assay on non-GSK-3 kinases is “little effect”. The “IC50, inhibition of GSK-3β activity” value against GSK-3β is “nanomolar range”. Further, the “expression of β-catenin mRNA” value in assay [8] was “did not alter”.
